How the values were obtained:
CRBN-DDB1 = CRBN-DDB1 (Homo sapiens, UniProt Q96SW2); experiment: Compound binding to CRBN by HTRF assay; settings: CRBN-DDB1 2.5 nM, Cy5-Thalidomide 100 nM, 30 min; Ki from geometric mean IC50 by Cheng-Prustoff transformation
Description: Compound activity was monitored in a Homogenous Time-Resolved Fluorescence (HTRF) assay using 1-[5-({2-[2-(2-{[2-(2,6-dioxopiperidin-3-yl)-1,3-dioxo-2,3-dihydro-1H-isoindol-4-yl]oxy}acetamido)ethoxy]ethyl}carbamoyl)pentyl]-3,3-dimethyl-2-[(1E,3E)-5-[(2E)-1,3,3-trimethyl-5-sulfo-2,3-dihydro-1H-indol-2-ylidene]penta-1,3-dien-1-yl]-3H-indol-1-ium-5-sulfonate as a fluorescent probe. Biochemical assays were conducted in Greiner white 384 well HiBase plates (Cat. No 784075-25) in 10 μL total volume. A one pot detection solution of CRBN-DDB1 (2.5 nM), Anti-His Terbium Cryptate Gold (1×, PerkinElmer Cat. #: 61HI2TLB), and Cy5-Thalidomide (100 nM, Tenova Cat.: T52461) was prepared in 20 mM HEPES, 20 mM NaCl, 0.2 mM TCEP, 0.2 mM EDTA, and 0.005% Tween20 was dispensed to each assay plate. Compounds were stored in dry, ambient temperatures at 10 mM. A 10-point, 1:3 dilution series was prepared from 10 mM stock concentrations in Echo-compatible LDV plates. 10 nL of each compound dilution series was dispensed into assays wells using an Echo 650 (Labcyte inc. USA). 10 nL of 10 mM Lenalidomide was transferred into the active-control wells for the assay and 10 nL of DMSO was transferred into the neutral-control wells. The assay was then allowed to incubate for 30 min at ambient temperature after transferring compound. Plate measurements were taken on a Pherastar FSX (BMG Labtech, Germany) using the HTRF Red filter (Ex. 337 nm, em1: 620 nm, em2: 665 nm) (Flashes: 50, Integration time: 60-400 us, Z-height: 10 mm, Ratio-multiplier: 10,000). The HTRF signal was then subsequently normalized to the neutral and active controls. Analysis and IC50 values were derived using KNIME analytics (KNIME Zurich) transformation and fitting within Collaborative Drug Discovery (Collaborative Drug Discovery USA). Ki was derived from the geometric mean of the IC50 values using the Cheng-Prustoff transformation.

CDK2 = target: T1, CDK2 (Homo sapiens, UniProt P24941); experiment: NanoBiT assay (CDK2 degradation); type: cell-based; settings: HEK293, HEK293 clonal line with CRISPR KI HiBiT tag on CDK2, Endurazine live cell substrate, 24 hours
T1 construct: HEK293 clonal lines with CRISPR KI HiBiT tag on CDK2 proteins; host or cells: HEK293 clonal line, CRISPR knock-in HiBiT-CDK2, stably expressing LgBiT
Description: HEK293 clonal lines with CRISPR KI HiBiT tag on either CDK2 proteins and stably expressing LgBiT protein were obtained from Promega (Madison, WI). Cells were plated at 5000 cells per well using Multiflo (BioTek) in 384-well white solid bottom plates (Corning, 3570BC) in 25 ul volume in DMEM media (DMEM, high glucose, HEPES, no phenol red (ThermoFisher Scientific, 21063029)) containing 10% FBS (Corning, 35-075-CV), 1% Penicillin/Streptomycin ((ThermoFisher Scientific, 15140-122), and 1% Endurazine (Nano-Glo Endurazine Live Cell Substrate (Promega, N2571)). Cells were incubated for 16 hours at 37 C, 5% CO2. 75 nL of a compound at 30 μM were dosed into the plate using an Echo® 650 liquid handler (Labcyte). Cells were incubated at 37° C., 5% CO2 for 24 hours and then signal was read on a Pherastar FSX using “LUM plus” optic module.
Analysis was performed in Scinamic (Scinamic, Cambridge, MA). Luminescence response (R) was calculated by the formula: response=100*(S−N)/(P−N) where S is the signal of the well, N and P the mean negative and positive control values respectively of the same plate. The luminescence response was then fitted in Scinamic using a 3-parameter agonist logistic fit (hillslope=1, EC50>0, top/bottom unconstrained).

Chain of CRBN-DDB1 (Q96SW2 whole entry): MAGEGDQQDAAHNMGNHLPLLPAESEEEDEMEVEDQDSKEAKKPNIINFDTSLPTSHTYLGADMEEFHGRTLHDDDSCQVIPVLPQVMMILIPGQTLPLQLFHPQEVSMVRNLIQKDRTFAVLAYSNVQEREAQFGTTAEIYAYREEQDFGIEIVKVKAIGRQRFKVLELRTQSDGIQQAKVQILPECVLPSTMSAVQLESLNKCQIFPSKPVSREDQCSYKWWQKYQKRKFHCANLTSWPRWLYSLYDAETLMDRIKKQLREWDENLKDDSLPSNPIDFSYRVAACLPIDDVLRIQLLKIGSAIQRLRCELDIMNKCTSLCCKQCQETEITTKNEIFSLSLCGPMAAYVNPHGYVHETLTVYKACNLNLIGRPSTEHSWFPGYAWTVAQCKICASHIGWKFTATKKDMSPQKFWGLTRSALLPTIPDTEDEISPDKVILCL
Chain of CRBN-DDB1 (Q16531 whole entry partner): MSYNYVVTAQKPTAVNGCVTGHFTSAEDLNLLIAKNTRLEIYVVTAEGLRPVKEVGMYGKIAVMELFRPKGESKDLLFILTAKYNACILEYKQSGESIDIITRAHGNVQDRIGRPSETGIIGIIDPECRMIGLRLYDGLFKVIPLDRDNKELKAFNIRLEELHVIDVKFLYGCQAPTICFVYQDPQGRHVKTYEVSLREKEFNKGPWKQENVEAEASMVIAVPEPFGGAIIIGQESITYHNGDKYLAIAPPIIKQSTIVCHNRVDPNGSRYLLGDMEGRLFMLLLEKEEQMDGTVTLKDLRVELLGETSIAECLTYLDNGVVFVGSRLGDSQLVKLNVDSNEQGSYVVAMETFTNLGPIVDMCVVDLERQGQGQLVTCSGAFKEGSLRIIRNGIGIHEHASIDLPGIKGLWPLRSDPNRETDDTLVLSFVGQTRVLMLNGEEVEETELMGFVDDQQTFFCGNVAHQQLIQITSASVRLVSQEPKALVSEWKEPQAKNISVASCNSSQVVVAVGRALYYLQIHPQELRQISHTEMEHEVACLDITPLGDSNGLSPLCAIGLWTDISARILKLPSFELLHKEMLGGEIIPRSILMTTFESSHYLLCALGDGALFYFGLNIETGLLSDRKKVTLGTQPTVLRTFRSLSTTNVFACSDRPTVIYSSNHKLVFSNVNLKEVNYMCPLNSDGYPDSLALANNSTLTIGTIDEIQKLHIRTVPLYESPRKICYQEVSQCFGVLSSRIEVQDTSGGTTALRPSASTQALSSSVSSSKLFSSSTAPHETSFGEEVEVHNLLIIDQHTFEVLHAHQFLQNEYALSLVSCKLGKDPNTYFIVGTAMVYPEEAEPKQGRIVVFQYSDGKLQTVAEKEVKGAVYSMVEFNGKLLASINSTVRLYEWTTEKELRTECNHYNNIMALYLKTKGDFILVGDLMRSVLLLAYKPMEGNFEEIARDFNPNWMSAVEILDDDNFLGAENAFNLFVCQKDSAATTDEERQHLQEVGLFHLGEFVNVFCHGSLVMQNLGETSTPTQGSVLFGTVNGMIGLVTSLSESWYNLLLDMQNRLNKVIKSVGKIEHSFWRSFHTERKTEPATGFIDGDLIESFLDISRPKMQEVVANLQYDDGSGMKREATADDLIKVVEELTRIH

Row | SMILES | Ki (CRBN-DDB1) [nM] | Dmax (CDK2) [%]
1 | O=C1CCC(N2Cc3ccc(CNC(=O)OCC4CCC[C@H]4C(F)(F)F)cc3C2=O)C(=O)N1 (mixture of isomers) [Compound 73, rac-[(1R,2R)-2-(trifluoromethyl)cyclopentyl]methyl N-{[2-(2,6-dioxopiperidin-3-yl)-3-oxo-2,3-dihydro-1H-isoindol-5-yl]methyl}carbamate] | 100 to 1000 | ≤ 10
2 | CC(C)(C)OC(=O)N1CC(COC(=O)NCc2ccc3c(c2)C(=O)N(C2CCC(=O)NC2=O)C3)C1 (stereo not shown) [Compound 45, tert-butyl 3-{[({[2-(2,6-dioxopiperidin-3-yl)-3-oxo-2,3-dihydro-1H-isoindol-5-yl]methyl}carbamoyl)oxy]methyl}azetidine-1-carboxylate] | 100 to 1000 | ≤ 10
3 | COCC(OC(=O)NCc1ccc2c(c1)C(=O)N(C1CCC(=O)NC1=O)C2)C1CC1 (stereo not shown) [Compound 49, 1-cyclopropyl-2-methoxyethyl N-{[2-(2,6-dioxopiperidin-3-yl)-3-oxo-2,3-dihydro-1H-isoindol-5-yl]methyl}carbamate] | 100 to 1000 | 10 to 50
4 | O=C1CCC(N2Cc3ccc(CNC(=O)OCC4CCS(=O)(=O)C4)cc3C2=O)C(=O)N1 (stereo not shown) [Compound 51, (1,1-dioxo-1lambda6-thiolan-3-yl)methyl N-{[2-(2,6-dioxopiperidin-3-yl)-3-oxo-2,3-dihydro-1H-isoindol-5-yl]methyl}carbamate] | ≤ 100 | ≤ 10
5 | C[C@H](CC1CC1)OC(=O)NCc1ccc2c(c1)C(=O)N(C1CCC(=O)NC1=O)C2 (stereo partly drawn) [Compound 56, (2R)-1-cyclopropylpropan-2-yl N-{[2-(2,6-dioxopiperidin-3-yl)-3-oxo-2,3-dihydro-1H-isoindol-5-yl]methyl}carbamate] | 100 to 1000 | 10 to 50
6 | CC(COC(=O)NCc1ccc2c(c1)C(=O)N(C1CCC(=O)NC1=O)C2)C1CCC1 (stereo not shown) [Compound 58, 2-cyclobutylpropyl N-{[2-(2,6-dioxopiperidin-3-yl)-3-oxo-2,3-dihydro-1H-isoindol-5-yl]methyl}carbamate] | ≤ 100 | ≤ 10
7 | CC1(C)[C@@H]2C[C@@H](OC(=O)NCc3ccc4c(c3)C(=O)N(C3CCC(=O)NC3=O)C4)C[C@@H]21 (stereo partly drawn) [Compound 62, (1R,3s,5S)-6,6-dimethylbicyclo[3.1.0]hexan-3-yl N-{[2-(2,6-dioxopiperidin-3-yl)-3-oxo-2,3-dihydro-1H-isoindol-5-yl]methyl}carbamate] | – | 50 to 80
8 | CC1(C)C2CCC1(COC(=O)NCc1ccc3c(c1)C(=O)N(C1CCC(=O)NC1=O)C3)CC2 (stereo not shown) [Compound 63, {7,7-dimethylbicyclo[2.2.1]heptan-1-yl}methyl N-{[2-(2,6-dioxopiperidin-3-yl)-3-oxo-2,3-dihydro-1H-isoindol-5-yl]methyl}carbamate] | – | 10 to 50
9 | C[C@@H](OC(=O)NCc1ccc2c(c1)C(=O)N(C1CCC(=O)NC1=O)C2)C1CC12CC2 (stereo partly drawn) [Compound 71, (1R)-1-{spiro[2.2]pentan-1-yl}ethyl N-{[2-(2,6-dioxopiperidin-3-yl)-3-oxo-2,3-dihydro-1H-isoindol-5-yl]methyl}carbamate] | – | ≤ 10
10 | CC12COC(COC(=O)NCc3ccc4c(c3)C(=O)N(C3CCC(=O)NC3=O)C4)(C1)C2 (stereo not shown) [Compound 72, {4-methyl-2-oxabicyclo[2.1.1]hexan-1-yl}methyl N-{[2-(2,6-dioxopiperidin-3-yl)-3-oxo-2,3-dihydro-1H-isoindol-5-yl]methyl}carbamate] | 100 to 1000 | ≤ 10
11 | O=C1CCC(N2Cc3ccc(CNC(=O)OCC4(C5CC5)CC4)cc3C2=O)C(=O)N1 (stereo not shown) [Compound 77, {[1,1′-bi(cyclopropane)]-1-yl}methyl N-{[2-(2,6-dioxopiperidin-3-yl)-3-oxo-2,3-dihydro-1H-isoindol-5-yl]methyl}carbamate] | 100 to 1000 | 10 to 50
12 | O=C1CCC(N2Cc3ccc(CNC(=O)OCCC4CC4(F)F)cc3C2=O)C(=O)N1 (stereo not shown) [Compound 78, 2-(2,2-difluorocyclopropyl)ethyl N-{[2-(2,6-dioxopiperidin-3-yl)-3-oxo-2,3-dihydro-1H-isoindol-5-yl]methyl}carbamate] | – | ≤ 10
13 | CC1(C)COC1COC(=O)NCc1ccc2c(c1)C(=O)N(C1CCC(=O)NC1=O)C2 (stereo not shown) [Compound 79, (3,3-dimethyloxetan-2-yl)methyl N-{[2-(2,6-dioxopiperidin-3-yl)-3-oxo-2,3-dihydro-1H-isoindol-5-yl]methyl}carbamate] | 100 to 1000 | ≤ 10
14 | CN(C(=O)OC(C)(C)C)C1CC(COC(=O)NCc2ccc3c(c2)C(=O)N(C2CCC(=O)NC2=O)C3)C1 (stereo not shown) [Compound 96, (3-{[(tert-butoxy)carbonyl](methyl)amino}cyclobutyl)methyl N-{[2-(2,6-dioxopiperidin-3-yl)-3-oxo-2,3-dihydro-1H-isoindol-5-yl]methyl}carbamate] | – | 10 to 50

Results, then the compound that gave them:

Row | Ki (CRBN-DDB1) [nM] | Dmax (CDK2) [%] | SMILES
15 | 100 to 1000 | ≤ 10 | O=C1CCC(N2Cc3ccc(CNC(=O)OCC4(CC5CC5)CC4)cc3C2=O)C(=O)N1 (stereo not shown) [Compound 80, [1-(cyclopropylmethyl)cyclopropyl]methyl N-{[2-(2,6-dioxopiperidin-3-yl)-3-oxo-2,3-dihydro-1H-isoindol-5-yl]methyl}carbamate]
16 | ≤ 100 | 10 to 50 | CC1(COC(=O)NCc2ccc3c(c2)C(=O)N(C2CCC(=O)NC2=O)C3)CS(=O)(=O)C1 (stereo not shown) [Compound 81, (3-methyl-1,1-dioxo-1lambda6-thietan-3-yl)methyl N-{[2-(2,6-dioxopiperidin-3-yl)-3-oxo-2,3-dihydro-1H-isoindol-5-yl]methyl}carbamate]
17 | – | ≤ 10 | O=C1CCC(N2Cc3ccc(CNC(=O)OCC4CCCS4(=O)=O)cc3C2=O)C(=O)N1 (stereo not shown) [Compound 82, (1,1-dioxo-1lambda6-thiolan-2-yl)methyl N-{[2-(2,6-dioxopiperidin-3-yl)-3-oxo-2,3-dihydro-1H-isoindol-5-yl]methyl}carbamate]
18 | 100 to 1000 | ≤ 10 | CC1(COC(=O)NCc2ccc3c(c2)C(=O)N(C2CCC(=O)NC2=O)C3)CCOCC1 (stereo not shown) [Compound 83, (4-methyloxan-4-yl)methyl N-{[2-(2,6-dioxopiperidin-3-yl)-3-oxo-2,3-dihydro-1H-isoindol-5-yl]methyl}carbamate]
19 | – | 10 to 50 | CC1(COC(=O)NCc2ccc3c(c2)C(=O)N(C2CCC(=O)NC2=O)C3)CCCCC1 (stereo not shown) [Compound 85, (1-methylcyclohexyl)methyl N-{[2-(2,6-dioxopiperidin-3-yl)-3-oxo-2,3-dihydro-1H-isoindol-5-yl]methyl}carbamate]
20 | – | ≤ 10 | CC1(C)OC[C@@H](COC(=O)NCc2ccc3c(c2)C(=O)N(C2CCC(=O)NC2=O)C3)O1 (stereo partly drawn) [Compound 87, [(4S)-2,2-dimethyl-1,3-dioxolan-4-yl]methyl N-{[2-(2,6-dioxopiperidin-3-yl)-3-oxo-2,3-dihydro-1H-isoindol-5-yl]methyl}carbamate]
21 | – | ≤ 10 | CC1(COC(=O)NCc2ccc3c(c2)C(=O)N(C2CCC(=O)NC2=O)C3)CN(C2CC2)C1 (stereo not shown) [Compound 97, (1-cyclopropyl-3-methylazetidin-3-yl)methyl N-{[2-(2,6-dioxopiperidin-3-yl)-3-oxo-2,3-dihydro-1H-isoindol-5-yl]methyl}carbamate]
22 | – | 10 to 50 | CC1CN(CCOC(=O)NCc2ccc3c(c2)C(=O)N(C2CCC(=O)NC2=O)C3)C1 (stereo not shown) [Compound 98, 2-(3-methylazetidin-1-yl)ethyl N-{[2-(2,6-dioxopiperidin-3-yl)-3-oxo-2,3-dihydro-1H-isoindol-5-yl]methyl}carbamate]

Reference: patent US20240317706A1, “COMPOUNDS THAT MEDIATE PROTEIN DEGRADATION AND METHODS OF USE THEREOF” (Monte Rosa Therapeutics, Inc., priority 2021, published 2024)
